Assay: xn = mol fraction of the nth substance listed
Settings: 100 kPa

Molecule `CC[n+]1ccn(C)c1.O=S(=O)([O-])C(F)(F)F` + CN(C)C=O has a speed of sound (298.15 K, x2 = 0.0917) of 1438.8 m/s, a viscosity (298.15 K, x2 = 0.0917) of 36.96 mPa·s and a speed of sound (298.15 K, x2 = 0.2995) of 1444 m/s. For the same molecule, the viscosity (298.15 K, x2 = 0.2995) was 20.94 mPa·s, the speed of sound (298.15 K, x2 = 0.406) was 1446 m/s and the viscosity (298.15 K, x2 = 0.406) was 14.56 mPa·s. It also gave a speed of sound (298.15 K, x2 = 0.5094) of 1448.4 m/s, a viscosity (298.15 K, x2 = 0.5094) of 8.77 mPa·s and a speed of sound (298.15 K, x2 = 0.5976) of 1450.6 m/s. It also gave a viscosity (298.15 K, x2 = 0.5976) of 6.17 mPa·s, a speed of sound (298.15 K, x2 = 0.6947) of 1453.4 m/s and a viscosity (298.15 K, x2 = 0.6947) of 3.45 mPa·s. The speed of sound (298.15 K, x2 = 0.7981) was 1457.5 m/s, the viscosity (298.15 K, x2 = 0.7981) was 2.59 mPa·s and the speed of sound (298.15 K, x2 = 0.8957) was 1460.7 m/s. It also gave a viscosity (298.15 K, x2 = 0.8957) of 1.54 mPa·s, a speed of sound (303.15 K, x2 = 0.0917) of 1427.6 m/s and a viscosity (303.15 K, x2 = 0.0917) of 31.13 mPa·s. For the same molecule, the speed of sound (303.15 K, x2 = 0.1933) was 1428.8 m/s, the viscosity (303.15 K, x2 = 0.1933) was 24.16 mPa·s and the speed of sound (303.15 K, x2 = 0.2995) was 1430.7 m/s. For the same molecule, the viscosity (303.15 K, x2 = 0.2995) was 17.86 mPa·s, the speed of sound (303.15 K, x2 = 0.5094) was 1434.6 m/s and the viscosity (303.15 K, x2 = 0.5094) was 7.75 mPa·s. For the same molecule, the speed of sound (303.15 K, x2 = 0.5976) was 1436.5 m/s, the viscosity (303.15 K, x2 = 0.5976) was 5.52 mPa·s and the speed of sound (303.15 K, x2 = 0.6947) was 1439.7 m/s. The viscosity (303.15 K, x2 = 0.6947) was 3.21 mPa·s, the speed of sound (303.15 K, x2 = 0.7981) was 1443.5 m/s and the viscosity (303.15 K, x2 = 0.7981) was 2.38 mPa·s. It also gave a speed of sound (303.15 K, x2 = 0.8957) of 1446.8 m/s, a viscosity (303.15 K, x2 = 0.8957) of 1.44 mPa·s and a speed of sound (308.15 K, x2 = 0.0917) of 1416 m/s. It also gave a viscosity (308.15 K, x2 = 0.0917) of 26.42 mPa·s, a speed of sound (308.15 K, x2 = 0.1933) of 1417.8 m/s and a viscosity (308.15 K, x2 = 0.1933) of 20.62 mPa·s. It also gave a speed of sound (308.15 K, x2 = 0.2995) of 1419.1 m/s, a viscosity (308.15 K, x2 = 0.2995) of 15.36 mPa·s and a speed of sound (308.15 K, x2 = 0.5094) of 1422.7 m/s. It also gave a viscosity (308.15 K, x2 = 0.5094) of 6.9 mPa·s, a speed of sound (308.15 K, x2 = 0.5976) of 1424.4 m/s and a viscosity (308.15 K, x2 = 0.5976) of 4.98 mPa·s. The speed of sound (308.15 K, x2 = 0.6947) was 1426.9 m/s, the viscosity (308.15 K, x2 = 0.6947) was 2.99 mPa·s and the speed of sound (308.15 K, x2 = 0.7981) was 1429.7 m/s. The viscosity (308.15 K, x2 = 0.7981) was 2.19 mPa·s, the speed of sound (308.15 K, x2 = 0.8957) was 1432.8 m/s and the viscosity (308.15 K, x2 = 0.8957) was 1.34 mPa·s. For the same molecule, the speed of sound (313.15 K, x2 = 0.0917) was 1404.6 m/s, the viscosity (313.15 K, x2 = 0.0917) was 22.67 mPa·s and the speed of sound (313.15 K, x2 = 0.1933) was 1406.5 m/s. It also gave a viscosity (313.15 K, x2 = 0.1933) of 17.78 mPa·s, a speed of sound (313.15 K, x2 = 0.2995) of 1408 m/s and a viscosity (313.15 K, x2 = 0.2995) of 13.34 mPa·s. The speed of sound (313.15 K, x2 = 0.406) was 1409.7 m/s, the viscosity (313.15 K, x2 = 0.406) was 9.57 mPa·s and the speed of sound (313.15 K, x2 = 0.5094) was 1411 m/s. For the same molecule, the viscosity (313.15 K, x2 = 0.5094) was 6.18 mPa·s, the speed of sound (313.15 K, x2 = 0.6947) was 1414.6 m/s and the viscosity (313.15 K, x2 = 0.6947) was 2.78 mPa·s. The speed of sound (313.15 K, x2 = 0.8957) was 1419.2 m/s, the viscosity (313.15 K, x2 = 0.8957) was 1.25 mPa·s and the speed of sound (318.15 K, x2 = 0.406) was 1398.7 m/s. It also gave a viscosity (318.15 K, x2 = 0.406) of 8.46 mPa·s, a speed of sound (318.15 K, x2 = 0.5094) of 1399.7 m/s and a viscosity (318.15 K, x2 = 0.5094) of 5.57 mPa·s. For the same molecule, the speed of sound (318.15 K, x2 = 0.5976) was 1400.4 m/s, the viscosity (318.15 K, x2 = 0.5976) was 4.1 mPa·s and the speed of sound (318.15 K, x2 = 0.7981) was 1403.5 m/s. It also gave a viscosity (318.15 K, x2 = 0.7981) of 1.88 mPa·s, a speed of sound (318.15 K, x2 = 0.8957) of 1405.3 m/s and a viscosity (318.15 K, x2 = 0.8957) of 1.18 mPa·s. It also gave a speed of sound (323.15 K, x2 = 0.0917) of 1382.3 m/s, a viscosity (323.15 K, x2 = 0.0917) of 17.12 mPa·s and a speed of sound (323.15 K, x2 = 0.1933) of 1384 m/s. It also gave a viscosity (323.15 K, x2 = 0.1933) of 13.56 mPa·s, a speed of sound (323.15 K, x2 = 0.2995) of 1386 m/s and a viscosity (323.15 K, x2 = 0.2995) of 10.31 mPa·s. For the same molecule, the speed of sound (323.15 K, x2 = 0.406) was 1387.4 m/s, the viscosity (323.15 K, x2 = 0.406) was 7.53 mPa·s and the speed of sound (323.15 K, x2 = 0.5094) was 1388 m/s. It also gave a viscosity (323.15 K, x2 = 0.5094) of 5.05 mPa·s, a speed of sound (323.15 K, x2 = 0.5976) of 1388.9 m/s and a viscosity (323.15 K, x2 = 0.5976) of 3.75 mPa·s. For the same molecule, the speed of sound (323.15 K, x2 = 0.7981) was 1390.6 m/s, the viscosity (323.15 K, x2 = 0.7981) was 1.75 mPa·s and the speed of sound (323.15 K, x2 = 0.8957) was 1392.1 m/s. It also gave a viscosity (323.15 K, x2 = 0.8957) of 1.11 mPa·s.
